This note sets out measurements from patent US20160137639A1, “TRIAZOLE-ISOXAZOLE COMPOUND AND MEDICAL USE THEREOF” (JAPAN TOBACCO INC., priority 2012, published 2016).

Where only a bound is given, the exact number is not on record here.

Experiment [1] addresses T1, human RORγ (Homo sapiens, UniProt P51449).
T1 construct: human, NM_005060.3 and from Ser253 to Lys518; expressed in transfected cells; host or cells: CHO cells (transient co-transfection with pG5-Luc reporter)
T1 sequence (P51449 253-518): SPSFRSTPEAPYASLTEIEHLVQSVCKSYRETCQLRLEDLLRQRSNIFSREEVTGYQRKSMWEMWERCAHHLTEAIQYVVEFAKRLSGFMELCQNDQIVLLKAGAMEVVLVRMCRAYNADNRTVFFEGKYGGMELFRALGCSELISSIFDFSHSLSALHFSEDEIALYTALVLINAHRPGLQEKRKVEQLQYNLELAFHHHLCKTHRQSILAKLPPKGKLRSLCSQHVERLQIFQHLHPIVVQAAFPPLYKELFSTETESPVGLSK
Description: Luciferase reporter gene assay of inhibitory effect against RORγ transcriptional activity (GAL4-hRORγ plasmid in CHO cells). It is filed as cell-based. The note with it: read-out: LUC EC50 hRORg. For orientation: In a reporter assay the amount or activity of a reporter protein is the signal.

Experiment [2] deals with T2, mouse RORγ (Mus musculus, UniProt P51450).
T2 construct: mouse, NM_011281.2 and from Ile251 to Lys516; expressed in transfected cells; host or cells: CHO cells (transient co-transfection with pG5-Luc reporter)
T2 sequence (P51450 251-516): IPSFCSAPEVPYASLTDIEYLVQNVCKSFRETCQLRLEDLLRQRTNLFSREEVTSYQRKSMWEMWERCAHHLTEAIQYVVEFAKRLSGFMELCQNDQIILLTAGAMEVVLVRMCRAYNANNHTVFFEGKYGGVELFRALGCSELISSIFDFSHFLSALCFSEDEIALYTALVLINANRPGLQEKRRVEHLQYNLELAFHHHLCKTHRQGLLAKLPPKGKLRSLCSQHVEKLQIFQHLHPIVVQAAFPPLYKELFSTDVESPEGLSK
Description: Luciferase reporter gene assay of inhibitory effect against RORγ transcriptional activity (GAL4-mRORγ plasmid in CHO cells). It is filed as cell-based. The note with it: read-out: LUC EC50 mRORg. The essentials:
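CHO cells transiently co-transfected with GAL4-mouse RORγ LBD (Ile251–Lys516) and GAL4-dependent luciferase reporter; eight compound concentrations, 0.1% DMSO, 2 days at 37 °C. Luminescence as %-of-vehicle control; EC50 by curve fit, cytotoxic concentrations excluded.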

In general, EC50 refers to the concentration at which the effect is half-maximal. Take `Cc1ccc(NC(=O)C[C@H](CNC(=O)CC#N)c2noc([C@H]3C[C@@H](CC(C)C)C3)c2C2CC2)c(C)c1` [Example F-647]: the EC50 in experiment [1] and in experiment [2] was less than 3 µM in each case.

Take `Cc1ccc(NC(=O)[C@H]2CN(C(=O)CN(C)C)C[C@@H]2c2nnc([C@H]3C[C@@H](CC(C)(C)C)C3)n2C2CC2)c(C)c1` [Example F-648]: the EC50 in experiment [1] and in experiment [2] was less than 3 µM throughout.

Take `CCN(CC)C(=O)CN1C[C@H](C(=O)Nc2ccc(C)cc2C)[C@@H](c2nnc([C@H]3C[C@@H](CC(C)(C)C)C3)n2C2CC2)C1` [Example F-649]: the 50% effective concentration (EC50) in experiment [1] and in experiment [2] was less than 3 µM each time.

With `CCN(CC)CC(=O)N1C[C@H](C(=O)Nc2ccc(C)cc2C)[C@@H](c2nnc([C@H]3C[C@@H](CC(C)(C)C)C3)n2C2CC2)C1` [Example F-650], the EC50 in experiment [1] and in experiment [2] was less than 3 µM each time.

Consider `Cc1ccc(NC(=O)[C@H]2CN(C(=O)N3CCN(C)CC3)C[C@@H]2c2nnc([C@H]3C[C@@H](CC(C)(C)C)C3)n2C2CC2)c(C)c1` [Example F-651], for which the 50% effective concentration (EC50) in experiment [1] and in experiment [2] was less than 3 µM in each case.

Turning to `Cc1ccc(NC(=O)[C@H]2CN(CC(=O)N(C)C)C[C@@H]2c2nnc([C@H]3C[C@@H](CC(C)(C)C)C3)n2C2CC2)c(C)c1` [Example F-652], the EC50 in experiment [1] and in experiment [2] was less than 3 µM throughout.

Take `CCN(CC)C(=O)CN1C[C@H](C(=O)Nc2ccc(C)cc2C)[C@@H](c2nnc([C@H]3C[C@@H](CC(C)C)C3)n2C2CC2)C1` [Example F-653]: the EC50 in experiment [1] and in experiment [2] was less than 3 µM in each case.

For `CCN(CC)CC(=O)N1C[C@H](C(=O)Nc2ccc(C)cc2C)[C@@H](c2nnc([C@H]3C[C@@H](CC(C)C)C3)n2C2CC2)C1` [Example F-654], the concentration for a half-maximal effect (EC50) is greater than 3 µM in experiment [1] and less than 3 µM in experiment [2].

As for `Cc1ccc(NC(=O)[C@H]2CN(C(=O)N3CCN(C)CC3)C[C@@H]2c2nnc([C@H]3C[C@@H](CC(C)C)C3)n2C2CC2)c(C)c1` [Example F-655], the EC50 in experiment [1] and in experiment [2] was less than 3 µM throughout.

Consider `Cc1ccc(NC(=O)[C@H]2CN(CC(=O)N(C)C)C[C@@H]2c2nnc([C@H]3C[C@@H](CC(C)C)C3)n2C2CC2)c(C)c1` [Example F-656], for which the concentration for a half-maximal effect (EC50) in experiment [1] and in experiment [2] was less than 3 µM each time.

For the molecule `Cc1ccc(NC(=O)[C@H]2CN(C(=O)CN(C)C)C[C@@H]2c2nnc([C@H]3C[C@@H](CC(C)C)C3)n2C2CC2)c(C)c1` [Example F-657], the values for the EC50 in experiment [1] and in experiment [2] were greater than 3 µM and less than 3 µM, respectively.

Take `Cc1ccc(NC(=O)C[C@H](CCO)c2nnc(-c3cc(CC(C)C)on3)n2C2CC2)c(C)c1` [Example F-659]: the concentration for a half-maximal effect (EC50) in experiment [1] and in experiment [2] was less than 3 µM in each case.

With `Cc1cc(Cl)ccc1NC(=O)C[C@H](CCO)c1nnc(-c2cc(CC(C)C)on2)n1C1CC1` [Example F-660], the concentration giving a half-maximal response (EC50) in experiment [1] and in experiment [2] was less than 3 µM each time.

With `Cc1c(F)ccc(NC(=O)C[C@H](CCO)c2nnc(-c3cc(CC(C)C)on3)n2C2CC2)c1C` [Example F-661], the EC50 in experiment [1] and in experiment [2] was less than 3 µM throughout.

`Cc1c(NC(=O)C[C@H](CCO)c2nnc(-c3cc(CC(C)C)on3)n2C2CC2)ccc(F)c1F` [Example F-662]: the EC50 in experiment [1] and in experiment [2] was less than 3 µM in each case.

`CCOC(=O)CCc1c(CCC(=O)Nc2ccc(C)cc2C)noc1[C@H]1C[C@@H](CC(C)C)C1` [Example F-663]: the half-maximal effective concentration (EC50) in experiment [1] and in experiment [2] was greater than 3 µM throughout.

Regarding `Cc1ccc(NC(=O)CCc2noc([C@H]3C[C@@H](CC(C)C)C3)c2CCC(=O)O)c(C)c1` [Example F-664], the EC50 in experiment [1] and in experiment [2] was greater than 3 µM in each case.

For the molecule `Cc1ccc(NC(=O)CCc2noc([C@H]3C[C@@H](CC(C)C)C3)c2C2CC2)c(C)c1` [Example F-665], the concentration for a half-maximal effect (EC50) in experiment [1] and in experiment [2] was less than 3 µM each time.

Regarding `Cc1ccc(NC(=O)C(CC(=O)O)Cc2noc([C@H]3C[C@@H](CC(C)C)C3)c2C2CC2)c(C)c1` (stereo partly drawn) [Example F-666], the figures for the EC50 in experiment [1] and in experiment [2] were greater than 3 µM and less than 3 µM, respectively.

For `Cc1ccc(NC(=O)C[C@H](CC(=O)O)c2noc([C@H]3C[C@@H](CC(C)C)C3)c2C2CC2)cn1` [Example F-667], the EC50 in experiment [1] was greater than 3 µM; in experiment [2], less than 3 µM.

For the molecule `Cc1ccc(NC(=O)[C@@H](CC(=O)O)Cc2noc([C@H]3C[C@@H](CC(C)C)C3)c2C2CC2)c(C)c1` [Example F-668], the EC50 in experiment [1] was greater than 3 µM; in experiment [2] it was less than 3 µM.

`Cc1cc(NC(=O)C[C@H](CC(=O)O)c2noc([C@H]3C[C@@H](CC(C)C)C3)c2C2CC2)n(C)n1` [Example F-669]: the EC50 was greater than 3 µM in experiment [1] and less than 3 µM in experiment [2].

For the molecule `Cc1cc(NC(=O)C[C@H](CC(=O)O)c2noc([C@H]3C[C@@H](CC(C)C)C3)c2C2CC2)no1` [Example F-670], the EC50 was greater than 3 µM in experiment [1] and less than 3 µM in experiment [2].

On to `Cc1ccc(NC(=O)[C@@H](CCC(=O)O)Cc2noc([C@H]3C[C@@H](CC(C)C)C3)c2C2CC2)c(C)c1` [Example F-671], for which the half-maximal effective concentration (EC50) in experiment [1] and in experiment [2] was less than 3 µM throughout.

Take `Cc1ccc(NC(=O)C[C@H](CCCO)c2noc([C@H]3C[C@@H](CC(C)(C)C)C3)c2C2CC2)c(Cl)c1` [Example F-672]: the EC50 in experiment [1] and in experiment [2] was less than 3 µM throughout.

Turning to `Cc1ccc(NC(=O)C[C@H](CCC(=O)O)c2noc([C@H]3C[C@@H](CC(C)(C)C)C3)c2C2CC2)c(C)n1` [Example F-673], the half-maximal effective concentration (EC50) in experiment [1] and in experiment [2] was less than 3 µM throughout.

Consider `Cc1ncc(NC(=O)C[C@H](CCC(=O)O)c2noc([C@H]3C[C@@H](CC(C)(C)C)C3)c2C2CC2)c(C)n1` [Example F-674], for which the concentration giving a half-maximal response (EC50) in experiment [1] and in experiment [2] was less than 3 µM throughout.

`Cc1cc(C)c(NC(=O)C[C@H](CCC(=O)O)c2noc([C@H]3C[C@@H](CC(C)(C)C)C3)c2C2CC2)cn1` [Example F-675]: the EC50 in experiment [1] and in experiment [2] was less than 3 µM throughout.

On to `Cc1ccc(NC(=O)C[C@H](CCC(=O)O)c2cc([C@H]3C[C@@H](CC(C)(C)C)C3)on2)c(Cl)c1` [Example F-676], for which the concentration for a half-maximal effect (EC50) in experiment [1] and in experiment [2] was less than 3 µM in each case.

Turning to `Cc1ccc(NC(=O)[C@@H](CC(=O)O)Cc2noc([C@H]3C[C@@H](CC(C)(C)C)C3)c2C2CC2)c(Cl)c1` [Example F-677], the EC50 in experiment [1] and in experiment [2] was less than 3 µM each time.

For the molecule `Cc1noc(NC(=O)C[C@H](CCC(=O)O)c2noc([C@H]3C[C@@H](CC(C)(C)C)C3)c2C2CC2)c1C` [Example F-679], the half-maximal effective concentration (EC50) in experiment [1] and in experiment [2] was less than 3 µM throughout.

With `Cc1ccc(NC(=O)C[C@H](CCC(=O)O)c2noc([C@H]3C[C@@H](CC(C)(C)C)C3)c2C2CC2)nc1C` [Example F-680], the EC50 in experiment [1] and in experiment [2] was less than 3 µM in each case.

As for `Cc1cnc(NC(=O)C[C@H](CCC(=O)O)c2noc([C@H]3C[C@@H](CC(C)(C)C)C3)c2C2CC2)c(C)c1` [Example F-681], the half-maximal effective concentration (EC50) in experiment [1] and in experiment [2] was less than 3 µM each time.
